# Results as given in patent US8258158B2 (Hoffmann-La Roche Inc., priority 2009, dated 2012).
# Target: T1, human HSL (Homo sapiens, UniProt Q05469)
# T1 construct: overlapping PCR to generate a full length human HSL ORF with a 3′-His6 tag; His6 (C); made in house; host or cells: High 5 insect cells (baculovirus, pFast-BAC)
# T1 sequence (Q05469 1-1076): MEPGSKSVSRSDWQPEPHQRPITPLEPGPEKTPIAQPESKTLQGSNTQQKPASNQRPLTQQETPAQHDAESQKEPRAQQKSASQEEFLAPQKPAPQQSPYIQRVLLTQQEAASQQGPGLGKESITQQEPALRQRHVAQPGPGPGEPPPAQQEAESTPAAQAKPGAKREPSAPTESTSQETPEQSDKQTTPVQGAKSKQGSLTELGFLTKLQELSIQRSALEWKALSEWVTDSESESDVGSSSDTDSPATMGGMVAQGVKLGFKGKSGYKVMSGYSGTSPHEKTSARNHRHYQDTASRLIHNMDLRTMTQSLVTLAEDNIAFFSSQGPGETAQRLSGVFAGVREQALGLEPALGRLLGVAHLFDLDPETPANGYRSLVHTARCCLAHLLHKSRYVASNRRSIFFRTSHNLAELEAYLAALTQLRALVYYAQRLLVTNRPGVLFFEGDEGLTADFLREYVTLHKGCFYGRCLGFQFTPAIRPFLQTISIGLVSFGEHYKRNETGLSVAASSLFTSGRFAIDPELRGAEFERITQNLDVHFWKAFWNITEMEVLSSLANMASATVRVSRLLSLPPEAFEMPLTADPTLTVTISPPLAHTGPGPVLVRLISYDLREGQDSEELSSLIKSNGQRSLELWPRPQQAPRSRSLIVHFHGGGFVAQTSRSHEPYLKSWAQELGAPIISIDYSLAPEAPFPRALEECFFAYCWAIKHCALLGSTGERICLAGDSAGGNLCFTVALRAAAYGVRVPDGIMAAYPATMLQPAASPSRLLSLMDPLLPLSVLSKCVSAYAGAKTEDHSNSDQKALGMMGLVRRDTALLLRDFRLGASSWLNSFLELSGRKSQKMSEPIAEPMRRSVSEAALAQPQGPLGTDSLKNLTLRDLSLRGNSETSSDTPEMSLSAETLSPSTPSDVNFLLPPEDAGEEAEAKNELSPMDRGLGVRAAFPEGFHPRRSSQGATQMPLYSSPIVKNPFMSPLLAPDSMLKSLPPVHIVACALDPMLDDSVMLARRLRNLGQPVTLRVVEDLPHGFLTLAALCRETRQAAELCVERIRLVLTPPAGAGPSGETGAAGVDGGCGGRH
# Test: Human hormone-sensitive lipase (HSL) enzyme inhibition assay (colorimetric, DMPT substrate)
# Format: biochemical
# Conditions: human full length HSL-His6; 2,3-dimercapto-1-propanol tributyrate substrate; 37° C., 20 minutes; read-out: HSL hum IC50
# Protocol: Production of Human Full Length Hormone Sensitive Lipase-His^6:
# 1) Cloning: cDNA was prepared from commercial human brain polyA+ RNA and used as a template in overlapping PCR to generate a full length human HSL ORF with a 3′-His6 tag. This full length insert was cloned into the pFast-BAC vector and the DNA-sequence of several single clones was verified. DNA from a correct full length clone with the 3′His6 tag was used to transform the E. coli strain DH10BAC. Resulting bacmid DNA was used to generate a titered baculovirus stock for protein generation. The sequence of the encoded HSL conforms to Swissprot entry Q05469, with the additional C-terminal His6-tag.
# 2) Protein purification: Culture: 5.5 L, High 5 cells expressing human full length HSL-His^6, 48 hr., containing 25 μM E-64. Cell count: […], 90% viable. Cells were thawed. On ice, cells were suspended in Base Buffer containing 10% glycerol, 25 mM Tris-Cl, 300 mM NaCl, 10 mM imidazole, 10 mM 2-mercaptoethanol, 2 μg pepstatin/ml, 2 μg leupeptin/ml, 2 μg antipain/ml, pH 8.0 at 4° C. in a final volume of 475 ml with 3.75×10^7 cells/ml. […] was done at 3×30 sec., Lubrol PX was added to 0.2% final concentration followed by stirring for 15 min. at 4° C. and centrifugation at 25 k×g, 60 min., 4° C. Soluble proteins were mixed with 60 ml of pre-washed and equilibrated Ni-NTA Agarose (Qiagen 30210) followed by tumbling end-over-end, 45 min., 4° C., centrifugation 1000 rpm 5 min and letting resin settle 5 min. Supernatant was removed, the resin washed in the centrifuge vessel using 5 volumes of Base Buffer containing 0.2% Lubrol PX. Centrifugation was done again, then the supernatant discarded. The resin was poured onto a 0.8 μm membrane in a disposable filter unit (Nalge 450-0080), and washed with 5 volumes of Base Buffer containing 0.2% Lubrol PX. It was then washed with 30 volumes of Base Buffer containing 60 mM imidazole pH 7.5 at 4° C. The protein was eluated with 5 volumes of 25 mM Tris-Cl, 300 mM NaCl, 200 mM imidazole, 10 mM 2-mercaptoethanol, pH 7.5 at 4° C. by tumbling resin with buffer end-over-end, 30 min., 4° C. The resin was captured on a 0.2 μm membrane disposable filter unit (Millipore SCGP U02 RE) and the eluate collected in the reservoir. The eluate was concentrated using a 30 k MWCO centrifugal filter device (Sartorius Vivascience Vivacell 100, VC1022), to 20 ml. It was then dialyzed overnight at 4° C., two times against 2 L of 10% glycerol, 25 mM Tris-Cl, 300 mM NaCl, 0.2 mM EDTA, 0.2 mM DTT, pH 7.5 at 4° C. The protein was filtered using a 0.22 μm disposable filter unit (Millipore SCGP00525). The protein concentration was calculated from absorbance at 280 nm, using 280=0.67 cm-1 mg-1. Yield was 235 mg, total. The protein was stored at −80° C.
# Human Hormone-Sensitive Lipase (HSL) Enzyme Inhibition Assay:
# HSL enzyme activity was measured by a colorimetric assay using 2,3-dimercapto-1-propanol tributyrate (Aldrich, St. Louis, Mo.) as a substrate. Typically, 1.5 mM 2,3-dimercapto-1-propanol tributyrate (DMPT) in 100 mM MOPS, pH 7.2, 0.2 mg/ml fatty acid-free BSA was prepared by sonication at 4° C. to homogenous suspension. Test compounds (2 mM stock in DMSO) were diluted 3 fold in series in DMSO. Compound solutions were diluted 24 fold in 1.5 mM DMPT containing solution and 18 ul per well was added to 384-well microplates (Corning Costar). Twelve microliters per well of human HSL (15 ug/ml) was added and the reaction mixture was incubated at 37° C. for 20 minutes. Six microliters of 12 mM dithio-bis-(2-nitrobenzoic acid) (DTNB) in DMSO plus 1.2% SDS and 0.6% Triton X-100 were added and the mixture was incubated at room temperature for 15 minutes. Product production was monitored by reading absorbance at 405 nm on an Envision Reader (PerkinElmer Life and Analytical Sciences, Shelton, Conn.).
row,IC50,Compound
1,90 nM,"Cc1ccc(S(=O)(=O)N2CCC(C(=O)Nc3ccc(OC(C)C4CC4)cc3)CC2)cc1 (racemic) [Example 34, (rac)-1-(Toluene-4-sulfonyl)-piperidine-4-carboxylic acid [4-(1-cyclopropyl-ethoxy)-phenyl]-amide]"
2,260 nM,"CC(C)(C)CCC(=O)N1CCC(C(=O)Nc2ccc(OC(F)(F)F)cc2)CC1 [Example 56, 1-(4,4-Dimethyl-pentanoyl)-piperidine-4-carboxylic acid (4-trifluoromethoxy-phenyl)-amide]"
3,120 nM,"Cc1ccc(S(=O)(=O)N2CCC(C(=O)Nc3ccc(OC(C)C(F)(F)F)nc3)CC2)cc1 (racemic) [Example 6, (rac)-1-(Toluene-4-sulfonyl)-piperidine-4-carboxylic acid [6-(2,2,2-trifluoro-1-methyl-ethoxy)-pyridin-3-yl]-amide]"
4,470 nM,"Cc1ccc(S(=O)(=O)N2CCC(C(=O)Nc3ccc(OC(C)C)cc3F)CC2)cc1 [Example 15, 1-(Toluene-4-sulfonyl)-piperidine-4-carboxylic acid (2-fluoro-4-isopropoxy-phenyl)-amide]"
5,80 nM,"COCC(Oc1ccc(NC(=O)C2CCN(S(=O)(=O)c3ccc(C)cc3)CC2)cc1)C(F)(F)F (racemic) [Example 54, (rac)-1-(Toluene-4-sulfonyl)-piperidine-4-carboxylic acid [4-(2,2,2-trifluoro-1-methoxymethyl-ethoxy)-phenyl]-amide]"
6,120 nM,"Cc1ccc(S(=O)(=O)N2CCC(C(=O)N(C)c3ccc(OC(C)C(F)(F)F)cc3)CC2)cc1 (racemic) [Example 5, (rac)-1-(Toluene-4-sulfonyl)-piperidine-4-carboxylic acid methyl-[4-(2,2,2-trifluoro-1-methyl-ethoxy)-phenyl]-amide]"
7,70 nM,"CC(Oc1ccc(NC(=O)C2CCN(S(=O)(=O)c3ccccc3Cl)CC2)cc1)C(F)(F)F (racemic) [Example 40, (rac)-1-(2-Chloro-benzenesulfonyl)-piperidine-4-carboxylic acid [4-(2,2,2-trifluoro-1-methyl-ethoxy)-phenyl]-amide]"
8,50 nM,"O=C(Nc1ccc(OC(F)(F)F)cc1)[C@H]1CCN(S(=O)(=O)c2ccccc2Cl)[C@H](CO)C1 (racemic) [Example 36, (2S,4S)-1-(2-Chloro-benzenesulfonyl)-2-hydroxymethyl-piperidine-4-carboxylic acid (4-trifluoromethoxy-phenyl)-amide and (2R,4R)-1-(2-Chloro-benzenesulfonyl)-2-hydroxymethyl-piperidine-4-carboxylic acid (4-trifluoromethoxy-phenyl)-amide]"
9,920 nM,"COCCCC1(C(=O)Nc2ccc(OC(C)C)cc2)CCN(S(=O)(=O)c2ccccc2)CC1 [Example 12, 1-Benzenesulfonyl-4-(3-methoxy-propyl)-piperidine-4-carboxylic acid (4-isopropoxy-phenyl)-amide]"
10,290 nM,"COCC[C@@H](Oc1ccc(NC(=O)C2CCN(S(=O)(=O)c3ccc(C)cc3)CC2)cc1)C(F)(F)F [Example 59, 1-(Toluene-4-sulfonyl)-piperidine-4-carboxylic acid [4-((R)-3-methoxy-1-trifluoromethyl-propoxy)-phenyl]-amide]"
11,810 nM,"Cc1ccc(S(=O)(=O)N2CCC(C)(C(=O)Nc3ccc(OC(C)C(F)(F)F)cc3)CC2)cc1 (racemic) [Example 43, (rac)-4-Methyl-1-(toluene-4-sulfonyl)-piperidine-4-carboxylic acid [4-(2,2,2-trifluoro-1-methyl-ethoxy)-phenyl]-amide]"
12,180 nM,"O=C(Nc1ccc(OC(F)(F)F)cc1)C1(F)CCN(S(=O)(=O)c2ccccc2Cl)CC1 [Example 30, 1-(2-Chloro-benzenesulfonyl)-4-fluoro-piperidine-4-carboxylic acid (4-trifluoromethoxy-phenyl)-amide]"
13,80 nM,"CN(C(=O)[C@H]1CCN(S(=O)(=O)c2ccccc2Cl)[C@H](CO)C1)c1ccc(OC(F)(F)F)cc1 (racemic) [Example 11, (2S,4S)-1-(2-Chloro-benzenesulfonyl)-2-hydroxymethyl-piperidine-4-carboxylic acid methyl-(4-trifluoromethoxy-phenyl)-amide and (2R,4R)-1-(2-Chloro-benzenesulfonyl)-2-hydroxymethyl-piperidine-4-carboxylic acid methyl-(4-trifluoromethoxy-phenyl)-amide]"
14,620 nM,"CC(Oc1ccc(NC(=O)C2CCN(C(=O)c3ccccc3Cl)CC2)cc1)C(F)(F)F (racemic) [Example 44, (rac)-1-(2-Chloro-benzoyl)-piperidine-4-carboxylic acid [4-(2,2,2-trifluoro-1-methyl-ethoxy)-phenyl]-amide]"
15,240 nM,"CC(C)c1ccc(NC(=O)C2CCN(S(=O)(=O)c3ccccc3)CC2)cn1 [Example 2, 1-Benzenesulfonyl-piperidine-4-carboxylic acid (6-isopropyl-pyridin-3-yl)-amide]"
16,170 nM,"Cc1ccc(S(=O)(=O)N2CCC(C(=O)Nc3ccc(OCC4CC4)cc3)CC2)cc1 [Example 20, 1-(Toluene-4-sulfonyl)-piperidine-4-carboxylic acid (4-cyclopropylmethoxy-phenyl)-amide]"
17,810 nM,"CC1(C(=O)Nc2ccc(OC(C)(C)C(F)(F)F)cc2)CCN(S(=O)(=O)c2ccccc2)CC1 (racemic) [Example 50, (rac)-1-Benzenesulfonyl-4-methyl-piperidine-4-carboxylic acid [4-(2,2,2-trifluoro-1,1-dimethyl-ethoxy)-phenyl]-amide]"
